Experiment [1] relates to p75^NTR receptors (PC12 cells). Description: Basic screening assay: binding of 125I-NGF to PC12 cells. As to conditions: test compound 50 μM, 0.5 nM 125I-NGF, PC12 cells, 2 h at 4° C., specific binding as percent of control. The procedure: (§1) The compounds were screened for effects on binding of ^125I-BDNF or ^125I-NGF to PC12 cells (p75^NTR receptors), and those that inhibited binding were further tested to determine the EC50 for this inhibition.
(§2) PC12 cells were cultured and prepared for binding assays as described in Example 1.
Lyophilized Serotec mouse 2.5S NGF (Cedarlane Laboratories, Toronto, Canada, cat. # PMP 04Z) was reconstituted under sterile conditions to 1 mg/mL (38 μM) in sterile 0.2% acetic acid, and 100 μL or 50 μL aliquots were stored frozen at −80° C.
(§3) Lypophilized Peprotech human recombinant BDNF (Cedarlane Laboratories, Toronto, Canada, cat. # PE 450-02-10) was reconstituted under sterile conditions to 3.5 μM in sterile HKR/1%BSA, and either used immediately or stored in aliquots of 20 μl at −80° C. Immediately prior to use, a 15 nM (30×) solution of ^125I-BDNF or ^125I-NGF was prepared in HKR buffer, and was used at 0.5 nM final concentration.
(§4) Test Compounds were dissolved to 10 mM in DMSO, and those that were not initially soluble were warmed to 40-50° C. and vortexed. Those compounds that were still not in solution were reported as such. Compounds were then stored in this form at −20° C. until use. Immediately before experiments, 100 mM compounds were diluted to 10 mM in DMSO (1:10), followed by a further dilution to 1 mM (1:10) with distilled water, and a further dilution to 500 μM (1:1) with HKR.
(§5) Assays to determine maximum binding (Bmax), non-specific binding (NSB), and binding in the presence of each test compound (e.g., x, y) were performed at least in duplicate. In a total volume of 300 μL, 4×10^6 PC12 cells were incubated, rotating for 2 h at 4° C. with the following:
(§6) At the conclusion of the binding reaction, 100 μL aliquots of the reaction mixtures were carefully layered over 200 μL of a 10% glycerol solution in a 0.4 mL tube, and subjected to centrifugation in a microcentrifuge for 2 minutes at half maximum speed. The cell pellets containing the bound ^125I-BDNF or ^125I-NGF were then measured using a gamma counter. The mean values of the replicates were then calculated to determine the value for maximum binding (Bmax) and nonspecific binding (NSB), and binding in the presence of test compound at 50 μM (Bx). Specific binding (SB) was measured by subtracting the NSB from the Bmax. Specific binding in the presence of the test compound (SBx) was determined by subtracting the NSB from the Bx for each test compound; and each SBx was divided by SB and multiplied by 100 to give the specific binding in the presence of the compound as a percent of control specific binding.

Experiment [2] addresses T1, p75^NTR receptors (PC12 cells) (Rattus norvegicus, UniProt P07174).
T1 construct: endogenous in cells; host or cells: PC12 cells
T1 sequence (P07174 30-425): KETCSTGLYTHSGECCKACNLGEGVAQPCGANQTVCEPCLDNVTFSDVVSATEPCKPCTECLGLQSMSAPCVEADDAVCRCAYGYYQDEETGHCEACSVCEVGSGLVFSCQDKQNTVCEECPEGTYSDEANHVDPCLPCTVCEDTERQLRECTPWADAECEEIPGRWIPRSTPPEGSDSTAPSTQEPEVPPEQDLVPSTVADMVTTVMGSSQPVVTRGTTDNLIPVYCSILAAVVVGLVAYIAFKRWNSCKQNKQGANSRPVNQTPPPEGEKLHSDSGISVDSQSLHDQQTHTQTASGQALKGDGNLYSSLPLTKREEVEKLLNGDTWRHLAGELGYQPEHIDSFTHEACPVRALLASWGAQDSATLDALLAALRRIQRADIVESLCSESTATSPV
T1 sequence (P23560 129-247 partner): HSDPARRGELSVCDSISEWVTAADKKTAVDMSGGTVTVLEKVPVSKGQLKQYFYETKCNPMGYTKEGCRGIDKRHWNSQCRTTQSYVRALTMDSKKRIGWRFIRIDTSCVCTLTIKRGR
The experiment in a line: Basic screening assay: binding of 125I-BDNF to PC12 cells. As to conditions: read-out: BDNF Activity % Maximal Binding. The procedure: as §1, §2, §3, §4, §5
as §6, with “Bmax.” for “Bmax. Specific binding in the presence of the test compound (SBx) was determined by subtracting the NSB from the Bx for each test compound; and each SBx was divided by SB and multiplied by 100 to give the specific binding in the presence of the compound as a percent of control specific binding.”

Setting [3] is: Table 1, test compound 50 μM, 0.5 nM 125I-BDNF, PC12 cells, 2 h at 4° C., specific binding as percent of control.
Setting [4] is: Table 4, test compound 50 μM, 0.5 nM 125I-BDNF, PC12 cells, 2 h at 4° C., specific binding as percent of control.
Where [5] appears, read: Table 2, test compound 50 μM, 0.5 nM 125I-BDNF, PC12 cells, 2 h at 4° C., specific binding as percent of control.

Structures are written as SMILES. Where two headings read alike, the source gives them in different places.

With `O=C1C(=Cc2ccc(-c3ccc([N+](=O)[O-])cc3)o2)SC(=S)N1Cc1cccnc1` [Compound 59, 5-[5-(4-Nitrophenyl)furan-2-ylmethylene]-3-pyridin-3-ylmethyl-2-thioxo-thiazolidin-4-one], the “NGF Activity % Maximal Binding” value in experiment [1] (Table 1) is listed as “* (50 < *)”. For the same compound, the activity at 50 µM in experiment [2] (setting [3]) lay within 40 to 50%.

On to `O=C1NC(=O)C(=Cc2ccc(-c3ccc([N+](=O)[O-])cc3)o2)C(=O)N1` [Compound 26, 5-[5-(4-Nitrophenyl)furan-2-ylmethylene]-pyrimidine-2,4,6-trione], for which, in experiment [1] (Table 1), the “NGF Activity % Maximal Binding” value is “* (50 < *)”. Also, the activity at 50 µM in experiment [2] was in the range of 0 to 10%.

In the case of `O=C(O)c1ccc(-c2ccc(/C=C3/NC(=O)N(Cc4ccccc4F)C3=O)o2)cc1Cl` [Compound 27, 2-Chloro-4-{5-[1-(2-fluorobenzyl)-2,5-dioxo-imidazolidin-4-ylidenemethyl]furan-2-yl}benzoic acid], in experiment [1] (Table 1), the “NGF Activity % Maximal Binding” value was “* (50 < *)”. The activity at 50 µM in experiment [2] (setting [3]) fell in the range of 0 to 10%.

As to `Cc1cccc(N2NC(=O)C(=Cc3ccc(-c4ccc(Cl)c(C(=O)O)c4)o3)C2=O)c1` [Compound 134, 2-Chloro-5-[5-(3,5-dioxo-1-m-tolyl-pyrazolidin-4-ylidenemethyl)furan-2-yl]benzoic acid], the “NGF Activity % Maximal Binding” value in experiment [1] (Table 4) was “* (50 < *)”. The activity at 50 µM in experiment [2] (setting [4]) was greater than 50%.

As for `COC(=O)c1ccc(-c2ccc(/C=C3\C(=O)NC(=O)N(Cc4ccccc4)C3=O)o2)cc1` [Compound 32, 4-[5-(1-benzyl-2,4,6-trioxo-tetrahydro-pyrimidin-5-ylidenemethyl)furan-2-yl]benzoic acid methyl ester], the “NGF Activity % Maximal Binding” value in experiment [1] (Table 1) is listed as “* (50 < *)”. The activity at 50 µM in experiment [2] lay in the range of 10 to 20%.

Regarding `Cc1ccc(-c2ccc(/C=C3/NC(=O)N(Cc4ccccc4F)C3=O)o2)cc1[N+](=O)[O-]` [Compound 129, 3-(2-Fluorobenzyl)-5-[5-(4-methyl-3-nitrophenyl)furan-2-ylmethylene]-imidazolidine-2,4-dione], in experiment [1] (Table 4), the “NGF Activity % Maximal Binding” value was “* (50 < *)”. Moreover, the activity at 50 µM in experiment [2] (setting [4]) is greater than 50%.

`COc1ccc(-c2ccc(C=C3C(=O)N(C)C(=O)N(C)C3=O)o2)cc1[N+](=O)[O-]` [Compound 31, 5-[5-(4-Methoxy-3-nitrophenyl)furan-2-ylmethylene]-1,3-dimethyl-pyrimidine-2,4,6-trione]: in experiment [1] (Table 1), the “NGF Activity % Maximal Binding” value was “* (50 < *)”. Also, the activity at 50 µM in experiment [2] was 10 to 20%.

For `NS(=O)(=O)c1cccc(-c2ccc(/C=C3/SC(=S)N(CC(=O)O)C3=O)o2)c1` [Compound 74, {4-oxo-5-[5-(3-sulfamoylphenyl)furan-2-ylmethylene]-2-thioxo-thiazolidin-3-yl}-acetic acid], the “NGF Activity % Maximal Binding” value in experiment [1] (Table 2) is reported as “X (40 < X < 50)”. Besides, in experiment [2] (setting [5]), the activity at 50 µM lay within 0 to 10%.

For `O=C1NC(=S)N/C1=C/c1ccc(-c2ccc(Cl)c([N+](=O)[O-])c2)o1` [Compound 93, 5-[5-(4-Chloro-3-nitrophenyl)furan-2-ylmethylene]-2-thioxo-imidazolidin-4-one], the “NGF Activity % Maximal Binding” value in experiment [1] (Table 4) is “* (50 < *)”. In experiment [2] (setting [4]), the activity at 50 µM was greater than 50%.

As for `O=C(O)c1ccc(Cl)c(-c2ccc(/C=C3/NC(=O)N(Cc4ccccc4F)C3=O)o2)c1` [Compound 72, 4-Chloro-3-{5-[1-(2-fluorobenzyl)-2,5-dioxo-imidazolidin-4-ylidenemethyl]furan-2-yl}benzoic acid], the “NGF Activity % Maximal Binding” value in experiment [1] (Table 2) is listed as “X (40 < X < 50)”. Moreover, in experiment [2] (setting [5]), the activity at 50 µM lay within 0 to 10%.

For the compound `CCCC(C(=O)O)N1C(=O)C(=Cc2ccc(-c3ccc([N+](=O)[O-])cc3)o2)SC1=S` (stereo not drawn) [Compound 52, 2-{5-[5-(4-Nitrophenyl)furan-2-ylmethylene]-4-oxo-2-thioxo-thiazolidin-3-yl}-pentanoic acid], in experiment [1] (Table 1), the “NGF Activity % Maximal Binding” value is given as “* (50 < *)”. The activity at 50 µM in experiment [2] (setting [3]) lay within 30 to 40%.

With `Cc1cc([N+](=O)[O-])ccc1-c1ccc(C=C2NC(=S)NC2=O)o1` [Compound 94, 5-[5-(2-Methyl-4-nitrophenyl)furan-2-ylmethylene]-2-thioxo-imidazolidin-4-one], the “NGF Activity % Maximal Binding” value in experiment [1] (Table 4) is given as “* (50 < *)”. The activity at 50 µM in experiment [2] (setting [4]) is greater than 50%.

In the case of `O=C1NC(=S)NC(=O)C1=Cc1ccc(-c2ccc([N+](=O)[O-])cc2Cl)o1` [Compound 4, 5-[5-(2-Chloro-4-nitrophenyl)furan-2-ylmethylene]-2-thioxo-dihydro-pyrimidine-4,6-dione], in experiment [1] (Table 1), the “NGF Activity % Maximal Binding” value is on record as “* (50 < *)”. Moreover, the activity at 50 µM in experiment [2] is 0 to 10%.

With `Cc1cc([N+](=O)[O-])ccc1-c1ccc(C=C2SC(=S)N(CC(=O)O)C2=O)o1` [Compound 40, {5-[5-(2-Methyl-4-nitrophenyl)furan-2-ylmethylene]-4-oxo-2-thioxo-thiazolidin-3-yl}-acetic acid], the “NGF Activity % Maximal Binding” value in experiment [1] (Table 1) was “* (50 < *)”. Further, the activity at 50 µM in experiment [2] (setting [3]) is 20 to 30%.

For `COc1cc([N+](=O)[O-])ccc1-c1ccc(/C=C2/NC(=O)N(c3cccc(Cl)c3)C2=O)o1` [Compound 137, 3-(3-Chlorophenyl)-5-[5-(2-methoxy-4-nitrophenyl)furan-2-ylmethylene]-imidazolidine-2,4-dione], in experiment [1] (Table 4), the “NGF Activity % Maximal Binding” value is “* (50 < *)”. Further, the activity at 50 µM in experiment [2] (setting [4]) was greater than 50%.

On to `COc1cc([N+](=O)[O-])ccc1-c1ccc(/C=C2\SC(=S)NC2=O)o1` [Compound 101, 5-[5-(2-Methoxy-4-nitrophenyl)furan-2-ylmethylene]-2-thioxo-thiazolidin-4-one], for which the “NGF Activity % Maximal Binding” value in experiment [1] (Table 4) is recorded as “* (50 < *)”. In addition, the activity at 50 µM in experiment [2] (setting [4]) is greater than 50%.

As for `COc1cc([N+](=O)[O-])ccc1-c1ccc(/C=C2/SC(=S)N(C)C2=O)o1` [Compound 60, 5-[5-(2-Methoxy-4-nitrophenyl)furan-2-ylmethylene]-3-methyl-2-thioxo-thiazolidin-4-one], the “NGF Activity % Maximal Binding” value in experiment [1] (Table 1) was “* (50 < *)”. Moreover, the activity at 50 µM in experiment [2] (setting [3]) lay in the range of 40 to 50%.

For `CCOC(=O)CN1C(=O)S/C(=C/c2ccc(-c3ccc([N+](=O)[O-])cc3Cl)o2)C1=O` [Compound 132, {5-[5-(2-Chloro-4-nitrophenyl)furan-2-ylmethylene]-2,4-dioxo-thiazolidin-3-yl}-acetic acid ethyl ester], the “NGF Activity % Maximal Binding” value in experiment [1] (Table 4) is recorded as “* (50 < *)”. Moreover, the activity at 50 µM in experiment [2] (setting [4]) was greater than 50%.

Values taken from patent publication US20050282840A1, “Methods of modulating neurotrophin-mediated activity” (PainCeptor Pharma Corporation, priority 2004, published 2005).
